Our source for the fold induction and IC50 values is publication PMC4049574 (PLoS ONE, 2014).

Molecules are shown by their SMILES. Where a name gives a salt, the structure may show the parent alone.

As usually defined, the IC50 is the concentration that inhibits the measured activity by half. Higher therefore signals weaker potency in that assay.

The target in experiment [1] is T1, human mitochondrial NAD(P)+-dependent malic enzyme (m-NAD(P)-ME, ME2) (Homo sapiens, UniProt P23368). In words: enzyme activation assay ([…] nm), purified enzyme; allosteric-site mutant controls. As to conditions: read-out: ^3 ^, ^4m-NAD(P)-ME WT.
For experiment [2], the target named is T1, human mitochondrial NAD(P)+-dependent malic enzyme (m-NAD(P)-ME, ME2). In words: spectrophotometric NADH assay at […] nm; fumarate competition/rescue; allosteric-site mutant controls. The experiment is classed as biochemical.

T1 sequence (P23368 19-584): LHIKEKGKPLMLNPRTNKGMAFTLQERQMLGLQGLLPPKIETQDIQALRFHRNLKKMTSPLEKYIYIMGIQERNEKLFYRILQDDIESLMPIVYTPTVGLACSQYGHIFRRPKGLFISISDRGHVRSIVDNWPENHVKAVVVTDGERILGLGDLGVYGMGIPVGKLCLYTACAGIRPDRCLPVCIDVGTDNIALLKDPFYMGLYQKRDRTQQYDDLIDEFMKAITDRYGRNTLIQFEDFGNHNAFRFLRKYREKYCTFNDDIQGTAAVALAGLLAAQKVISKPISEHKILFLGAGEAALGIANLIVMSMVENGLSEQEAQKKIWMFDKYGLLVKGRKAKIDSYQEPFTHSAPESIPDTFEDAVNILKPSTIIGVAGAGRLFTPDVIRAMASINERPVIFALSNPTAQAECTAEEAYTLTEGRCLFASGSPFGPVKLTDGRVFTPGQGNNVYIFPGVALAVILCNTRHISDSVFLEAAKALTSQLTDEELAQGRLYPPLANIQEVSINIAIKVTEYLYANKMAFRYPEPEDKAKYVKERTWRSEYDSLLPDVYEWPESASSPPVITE

Regarding `COC(=O)/C=C/C(=O)O` [Monomethyl fumarate], the fold induction at 5000 µM in experiment [1] worked out at 2.78 ± 0.08. `C/C(=C\C(=O)O)C(=O)O` [Mesaconate]: in experiment [1], the fold induction at 20000 µM is 1.75 ± 0.16.

As to `CCOC(=O)/C=C/C(=O)O` [Monoethyl fumarate], the fold induction at 10000 µM in experiment [1] amounted to 1.83 ± 0.04. As to `CCOC(=O)/C=C(\O)C(=O)OCC` [diethyl oxalacetate], the 50% inhibitory concentration (IC50) in experiment [2] was about 2500 µM.
